Test results: BindingDB's records for doi:10.1016/s0960-894x(00)00194-3 (The Oxford Centre For Molecular Sciences, 2000)
pKi: −log10 of the molar value. Where a SMILES comes first, the peptide text is derived from it.

Test: Peptide was tested for inhibition constant for competitive inhibition using Suc-AAPA-pNa and Pancreatic elastase

| pKi | SMILES |
| --- | --- |
| 2.24 | CC[C@H](C)[C@H](NC(=O)[C@H](C)NC(=O)[C@H](CCC(=O)O)NC(=O)[C@H](CC(C)C)NC(=O)[C@H](Cc1ccccc1)NC(=O)[C@@H](N)CCSC)C(=O)N1CCC[C@H]1C(=O)N[C@@H](CCSC)C(=O)N[C@@H](CO)C(=O)O |
| 4.00 | CC[C@H](C)[C@H](NC(=O)[C@H](CO)NC(=O)[C@H](CCSC)NC(=O)[C@@H]1CCCN1C(=O)[C@@H](NC(=O)[C@H](C)NC(=O)[C@H](CCC(=O)O)NC(=O)[C@H](CC(C)C)NC(=O)[C@H](Cc1ccccc1)NC(=O)[C@@H](N)CCSC)[C@@H](C)CC)C(=O)O |
| 2.96 | CSCC[C@H](N)C(=O)N[C@@H](Cc1ccccc1)C(=O)N[C@@H](CC(C)C)C(=O)N[C@@H](C)C(=O)O [(S)-2-{(S)-2-[(S)-2-((S)-2-Amino-4-methylsulfanyl-butyrylamino)-3-phenyl-propionylamino]-4-methyl-pentanoylamino}-propionic acid] (H-MFLA-OH) |
